Activity calls are given as the source filed them.
Assays:
Albumin = Albumin (Bos taurus, UniProt P02769); experiment: Counterscreen for inhibitors of T-cell receptor (TCR)-CD3 interaction: Fluorescence-based biochemical high throughput dose response assay to identify inhibitors of T-cell receptor (TCR)-CD3 interaction using a TAMRA-labeled BSA probe.; format: functional
[1] = THP-1 cell cytotoxicity, dose response, cytotoxicity control for Vif-APOBEC3G degradation inhibitor project, THP-1 cells (AID 1117359); format: functional; conditions: Human immunodeficiency virus 1, THP-1
[2] = inhibitors of SNCA 5'UTR-driven reporter translation, confirmation, H4 neuroglioma cells, luminescence (AID 1988); format: functional, cell-based
[3] = biological target: Serine/threonine-protein kinase Nek2 (Homo sapiens, UniProt P51955); format: functional
[4] = biological target: Casein kinase I isoform gamma-1 (Homo sapiens, UniProt Q9HCP0); format: functional;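 note: measured as the CSNK1G1 member of a kinome profiling panel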
[5] = biological target: Dual specificity tyrosine-phosphorylation-regulated kinase 1B (Homo sapiens, UniProt Q9Y463); experiment: Navigating the Kinome. Panel member name: DYRK1B; format: functional
[6] = biological target: Megakaryocyte-associated tyrosine-protein kinase (Homo sapiens, UniProt P42679); format: functional;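 note: affinity measured as one member of a kinase panel (Navigating the Kinome) against MATK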
[7] = biological target: cGMP-dependent protein kinase 1 (Homo sapiens, UniProt Q13976); format: functional;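 note: value from a kinome panel screen with PRKG1 as the panel member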
Ephrin type-A receptor 2 = Ephrin type-A receptor 2 (Homo sapiens, UniProt P29317); format: functional;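 note: EPHA2 tested as one member of a kinome-wide kinase panel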
[8] = biological target: Vascular endothelial growth factor receptor 3 (Homo sapiens, UniProt P35916); format: functional;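 note: value from a kinome-wide profiling panel, with FLT4 as the panel member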

cGMP-dependent protein kinase 1, sequence (Q13976 whole entry): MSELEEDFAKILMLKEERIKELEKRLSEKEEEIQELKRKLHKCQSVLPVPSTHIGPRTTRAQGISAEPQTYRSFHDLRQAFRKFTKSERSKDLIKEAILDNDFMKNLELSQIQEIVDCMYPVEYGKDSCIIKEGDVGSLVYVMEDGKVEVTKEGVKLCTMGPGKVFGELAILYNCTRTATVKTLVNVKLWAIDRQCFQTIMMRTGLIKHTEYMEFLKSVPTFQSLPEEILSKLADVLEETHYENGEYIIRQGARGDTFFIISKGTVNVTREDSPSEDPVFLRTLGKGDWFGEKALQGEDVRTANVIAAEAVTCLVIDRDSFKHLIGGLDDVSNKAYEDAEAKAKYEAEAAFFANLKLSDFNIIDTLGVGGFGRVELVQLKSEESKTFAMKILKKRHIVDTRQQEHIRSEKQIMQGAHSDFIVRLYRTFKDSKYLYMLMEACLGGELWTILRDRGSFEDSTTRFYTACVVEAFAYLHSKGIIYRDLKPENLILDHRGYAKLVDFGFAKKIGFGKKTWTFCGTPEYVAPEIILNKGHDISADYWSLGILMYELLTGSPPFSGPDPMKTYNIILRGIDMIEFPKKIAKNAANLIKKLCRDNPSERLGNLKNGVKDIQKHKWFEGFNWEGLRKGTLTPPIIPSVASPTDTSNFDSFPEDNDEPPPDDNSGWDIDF
Ephrin type-A receptor 2, sequence (P29317 whole entry): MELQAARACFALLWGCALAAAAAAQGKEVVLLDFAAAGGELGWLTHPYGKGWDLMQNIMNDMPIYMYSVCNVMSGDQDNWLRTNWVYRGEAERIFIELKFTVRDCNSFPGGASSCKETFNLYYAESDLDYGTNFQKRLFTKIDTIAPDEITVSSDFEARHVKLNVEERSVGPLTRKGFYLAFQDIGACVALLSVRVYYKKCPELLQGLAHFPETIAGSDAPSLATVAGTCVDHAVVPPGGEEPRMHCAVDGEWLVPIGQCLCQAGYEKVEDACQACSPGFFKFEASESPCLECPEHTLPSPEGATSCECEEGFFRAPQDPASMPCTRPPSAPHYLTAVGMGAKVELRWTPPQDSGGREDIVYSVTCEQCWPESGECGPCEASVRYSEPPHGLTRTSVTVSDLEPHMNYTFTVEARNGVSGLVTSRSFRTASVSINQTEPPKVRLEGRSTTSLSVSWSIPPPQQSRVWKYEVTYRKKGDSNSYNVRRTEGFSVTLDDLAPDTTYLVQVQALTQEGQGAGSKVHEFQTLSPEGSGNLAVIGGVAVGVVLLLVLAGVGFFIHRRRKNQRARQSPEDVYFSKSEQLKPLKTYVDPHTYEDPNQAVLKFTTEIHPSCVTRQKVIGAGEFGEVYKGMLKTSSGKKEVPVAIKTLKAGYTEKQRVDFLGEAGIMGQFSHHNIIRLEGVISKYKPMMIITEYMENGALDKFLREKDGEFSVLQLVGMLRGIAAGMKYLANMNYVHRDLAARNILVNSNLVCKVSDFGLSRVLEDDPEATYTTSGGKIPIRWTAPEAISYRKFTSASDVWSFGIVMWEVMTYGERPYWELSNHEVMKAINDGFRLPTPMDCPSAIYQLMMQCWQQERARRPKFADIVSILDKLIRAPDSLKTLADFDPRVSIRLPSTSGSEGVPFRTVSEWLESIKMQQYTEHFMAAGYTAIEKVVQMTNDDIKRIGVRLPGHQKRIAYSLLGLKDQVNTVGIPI
Serine/threonine-protein kinase Nek2, sequence (P51955 whole entry, canonical isoform): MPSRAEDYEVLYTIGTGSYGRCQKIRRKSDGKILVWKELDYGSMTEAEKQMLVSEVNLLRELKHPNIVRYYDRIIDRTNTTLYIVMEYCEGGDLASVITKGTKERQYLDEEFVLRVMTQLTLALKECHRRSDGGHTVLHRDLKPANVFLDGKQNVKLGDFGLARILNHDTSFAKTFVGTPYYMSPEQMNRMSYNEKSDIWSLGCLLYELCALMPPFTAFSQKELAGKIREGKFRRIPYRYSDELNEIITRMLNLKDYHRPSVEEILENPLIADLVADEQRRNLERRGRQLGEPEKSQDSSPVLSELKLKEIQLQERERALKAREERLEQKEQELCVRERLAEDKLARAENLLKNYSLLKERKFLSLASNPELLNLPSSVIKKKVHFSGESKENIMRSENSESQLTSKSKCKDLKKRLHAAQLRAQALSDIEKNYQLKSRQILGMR
Albumin, sequence (P02769 whole entry): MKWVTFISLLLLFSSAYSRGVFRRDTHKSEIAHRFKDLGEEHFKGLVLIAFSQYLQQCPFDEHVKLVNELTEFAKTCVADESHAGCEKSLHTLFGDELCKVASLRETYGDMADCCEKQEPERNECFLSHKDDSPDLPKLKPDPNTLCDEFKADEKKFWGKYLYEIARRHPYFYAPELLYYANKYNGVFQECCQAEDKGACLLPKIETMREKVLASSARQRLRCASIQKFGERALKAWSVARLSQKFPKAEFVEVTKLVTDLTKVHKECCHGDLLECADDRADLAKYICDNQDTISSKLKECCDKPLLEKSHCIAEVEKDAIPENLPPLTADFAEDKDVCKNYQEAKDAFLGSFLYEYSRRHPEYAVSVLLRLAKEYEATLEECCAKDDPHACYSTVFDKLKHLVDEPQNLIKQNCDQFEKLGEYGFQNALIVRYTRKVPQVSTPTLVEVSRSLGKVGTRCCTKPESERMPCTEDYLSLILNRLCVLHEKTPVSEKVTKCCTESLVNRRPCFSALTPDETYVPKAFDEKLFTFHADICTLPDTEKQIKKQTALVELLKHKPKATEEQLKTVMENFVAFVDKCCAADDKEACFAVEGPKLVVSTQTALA
Dual specificity tyrosine-phosphorylation-regulated kinase 1B, sequence (Q9Y463 whole entry): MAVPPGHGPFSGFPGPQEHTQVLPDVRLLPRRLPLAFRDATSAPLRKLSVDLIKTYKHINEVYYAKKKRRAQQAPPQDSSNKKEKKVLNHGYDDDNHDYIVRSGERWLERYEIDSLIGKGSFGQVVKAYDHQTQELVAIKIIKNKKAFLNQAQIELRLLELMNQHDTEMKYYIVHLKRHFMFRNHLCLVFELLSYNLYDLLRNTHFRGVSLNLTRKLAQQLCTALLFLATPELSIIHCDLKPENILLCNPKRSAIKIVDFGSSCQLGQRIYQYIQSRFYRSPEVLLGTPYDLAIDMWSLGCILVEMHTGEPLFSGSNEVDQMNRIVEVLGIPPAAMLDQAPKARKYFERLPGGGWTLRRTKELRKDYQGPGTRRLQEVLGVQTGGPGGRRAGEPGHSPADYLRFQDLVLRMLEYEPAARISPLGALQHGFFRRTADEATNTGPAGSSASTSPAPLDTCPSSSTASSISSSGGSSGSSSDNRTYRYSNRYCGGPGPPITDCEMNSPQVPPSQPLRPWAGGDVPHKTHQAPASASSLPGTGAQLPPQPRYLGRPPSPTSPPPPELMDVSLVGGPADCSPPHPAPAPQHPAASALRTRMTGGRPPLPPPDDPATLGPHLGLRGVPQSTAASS
Casein kinase I isoform gamma-1, sequence (Q9HCP0 whole entry, canonical isoform): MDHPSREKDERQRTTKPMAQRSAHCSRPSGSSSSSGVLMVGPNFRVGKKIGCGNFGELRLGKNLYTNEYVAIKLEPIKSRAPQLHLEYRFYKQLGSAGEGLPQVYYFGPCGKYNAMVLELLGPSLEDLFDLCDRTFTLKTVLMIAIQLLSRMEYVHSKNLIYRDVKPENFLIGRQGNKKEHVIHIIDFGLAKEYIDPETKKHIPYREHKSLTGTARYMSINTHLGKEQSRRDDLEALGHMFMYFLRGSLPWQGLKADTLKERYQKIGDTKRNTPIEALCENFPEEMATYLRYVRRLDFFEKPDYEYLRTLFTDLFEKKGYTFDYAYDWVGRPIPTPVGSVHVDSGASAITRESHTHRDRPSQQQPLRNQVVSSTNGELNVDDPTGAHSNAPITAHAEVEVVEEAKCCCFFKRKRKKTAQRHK
Megakaryocyte-associated tyrosine-protein kinase, sequence (P42679 whole entry): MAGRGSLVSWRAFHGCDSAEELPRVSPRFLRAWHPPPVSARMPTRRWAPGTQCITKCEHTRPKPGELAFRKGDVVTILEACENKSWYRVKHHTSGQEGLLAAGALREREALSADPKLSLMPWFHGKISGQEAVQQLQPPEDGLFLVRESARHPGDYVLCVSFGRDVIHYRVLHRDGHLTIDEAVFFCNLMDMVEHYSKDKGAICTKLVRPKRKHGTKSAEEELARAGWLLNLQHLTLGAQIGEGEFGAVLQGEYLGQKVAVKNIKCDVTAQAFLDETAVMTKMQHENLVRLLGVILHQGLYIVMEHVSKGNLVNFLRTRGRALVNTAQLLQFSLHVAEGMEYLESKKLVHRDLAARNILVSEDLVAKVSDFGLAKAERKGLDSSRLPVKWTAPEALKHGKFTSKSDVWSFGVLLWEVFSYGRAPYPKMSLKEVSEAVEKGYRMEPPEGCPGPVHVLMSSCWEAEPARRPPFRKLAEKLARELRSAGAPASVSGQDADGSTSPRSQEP

O=C1NC(=S)S/C1=C\C=C\c1ccc([N+](=O)[O-])o1
IC50 (Albumin): > 94.1 µM (inactive)
CC50 [1]: 4.04 µM (active)

COC(=O)C1CN(C#N)N(c2ccc(Cl)cc2)C12c1ccccc1-c1ccccc12 (stereo not given)
EC50 [2]: 7.38 µM (active)

Nc1noc2cccc(-c3cccc(O)c3)c12
Ki [3]: > 10 µM (inactive)
Ki [4]: > 6.31 µM (inactive)
Ki [5]: 3.16 µM (active)
Ki [6]: > 2 µM (inactive)
Ki [7]: > 2 µM (inactive)
Ki (Ephrin type-A receptor 2): > 3.16 µM (inactive)
Ki [8]: > 6.31 µM (inactive)

Reference: ChEMBL document CHEMBL1201862, “PubChem BioAssay data set” (2004)
